The values that follow come from PMC10913735, “New myxobacteria of the Myxococcaceae clade produce angiolams with antiparasitic activities” (Microbiology Spectrum, 2024).

Where two headings read alike, the source gives them in different places. Some results are limits rather than exact numbers.

Series [1] deals with Trypanosoma brucei rhodesiense (STIB 900) bloodstream forms. Briefly: In vitro activity against Trypanosoma brucei rhodesiense bloodstream forms. The format is cell-based. The note with it: for IC50: Trypanosoma brucei, read-out: T. b. rhodesiense IC50; for T. b. rhodesiense SI (selectivity index): IC50 in L6 cells divided by IC50 in T. b. rhodesiense. The method, then: (§1) Based on the antiparasitic bioactivity of the crude extract of MCy12716, angiolams A (1), B (2), C (3), D (4), and F (5) were tested for their in vitro activities against the following protozoan parasites: Trypanosoma brucei rhodesiense (STIB 900) bloodstream forms, Trypanosoma cruzi (Tulahuen C4) amastigotes, Leishmania donovani (MHOM/ET/67/L82) axenic amastigotes, and Plasmodium falciparum (NF54) proliferative erythrocytic stages. In parallel, the cytotoxicity of these compounds in rat skeletal myoblasts (L-6 cells) was determined in order to obtain an initial assessment of their selectivity.
(§2) In vitro activity assays against a panel of protozoal parasites, namely Trypanosoma brucei rhodesiense (STIB 900), Trypanosoma cruzi (Tulahuen C4), Leishmania donovani (MHOM/ET/67/L82), and Plasmodium falciparum (NF54), and cytotoxicity tests against mammalian cells (L6-cell line from rat-skeletal myoblasts) were performed according to previously described methods ([2], [3]). All assays were performed in at least three independent replicates.

Series [2] concerns Plasmodium falciparum (NF54) proliferative erythrocytic stages. Briefly: In vitro activity against Plasmodium falciparum erythrocytic stages. The format is cell-based. As to conditions: for IC50: Plasmodium falciparum; for P. falciparum SI (selectivity index): IC50 in L6 cells divided by IC50 in P. falciparum. The method, then: In parallel, the cytotoxicity of these compounds in rat skeletal myoblasts (L-6 cells) was determined in order to obtain an initial assessment of their selectivity.
as §2

The next series in a line: Cytotoxicity in L6 cells. It is filed as cell-based, rat. The method, then:
as §1, §2

Series [3] deals with Trypanosoma cruzi (Tulahuen C4) amastigotes. Description: In vitro activity against Trypanosoma cruzi amastigotes. It is filed as cell-based. The note with it: for T. cruzi SI (selectivity index): IC50 in L6 cells divided by IC50 in T. cruzi; for IC50: Trypanosoma cruzi, Tulahuen C4, mean of at least three independent replicates ± SD, read-out: T. cruzi IC50. The method, then: as §1, §2

Series [4] deals with Leishmania donovani (MHOM/ET/67/L82) axenic amastigotes. Description: In vitro activity against Leishmania donovani axenic amastigotes. The format is cell-based. The note with it: for L. donovani SI (selectivity index): IC50 in L6 cells divided by IC50 in L. donovani; for IC50: Leishmania donovani, MHOM-ET-67/L82 axenic amastigotes, mean of at least three independent replicates ± SD, read-out: L. donovani IC50. The method, then: as §1, §2

[5] abbreviates: L6 rat skeletal myoblasts, mean of at least three independent replicates ± SD, read-out: Cytotoxicity in L6 cells IC50.
Where [6] appears, read: NF54, mean of at least three independent replicates ± SD, read-out: P. falciparum IC50.
Setting [7] is: STIB 900, mean of at least three independent replicates ± SD.

For `Nc1nc(N)nc(Nc2ccc([As]3SCC(CO)S3)cc2)n1` (centres unmarked) [Melarsoprol, reference compound], the half-maximal inhibitory concentration (IC50) (commonly the concentration needed to halve the response being measured) in series [1] came out at 0.02 µM.
Turning to `CCN(CC)CCCC(C)Nc1ccnc2cc(Cl)ccc12` (centres unmarked) [Chloroquine, reference compound], the IC50 in series [2] (NF54, read-out: P. falciparum IC50) turned out to be 0.004 µM.
With `COc1cc([C@@H]2c3cc4c(cc3[C@H](O)[C@H]3COC(=O)[C@H]23)OCO4)cc(OC)c1OC` [Podophyllotoxin, reference compound], the half-maximal inhibitory concentration (IC50) in “Cytotoxicity in L6 cells” (setting [5]) amounted to 0.02 µM.
On to `CC/C=C(\C)[C@@H](O)CC[C@@H](C)/C=C/[C@@H]1CC[C@@H](C)C(=O)CC(=O)N[C@@H](C)CCC(=O)[C@@H](C)[C@H](O)[C@@H](C)/C=C(\C)C(=O)O1` [Angiolam C, angiolam C], for which the concentration for half-maximal inhibition (IC50) in “Cytotoxicity in L6 cells” (rat) was 30.6 ± 2.3 µM; in series [2] (setting [6]), 0.6 ± 0.4 µM; in series [3], 34 ± 11.6 µM; in series [1] (setting [7]), 4.5 ± 0.4 µM; in series [4] it was 15.4 ± 2.3 µM. Also, the “P. falciparum SI (selectivity index)” value in series [2] is given as no less than 30; in series [2] (listed as Angiolam C (3)), 53.7. In addition, the “T. cruzi SI (selectivity index)” value was no more than 2.1 in series [3] and 0.9 in series [3] (listed as Angiolam C (3)). The “T. b. rhodesiense SI (selectivity index)” value in series [1] worked out at 6.8. In addition, the “L. donovani SI (selectivity index)” value in series [4] came out at 1.99.
For the molecule `O=C(Cn1ccnc1[N+](=O)[O-])NCc1ccccc1` [Benznidazole, reference compound], the IC50 in series [3] was determined as 2.47 µM.
Regarding `C=C/C=C(\C)[C@@H](O)CC[C@@H](C)/C=C/[C@@H]1CC[C@@H](C)C(=O)CC(=O)N[C@@H](C)CCC(=O)[C@@H](C)[C@H](O)[C@@H](CC)/C=C(\CC)C(=O)O1` [Angiolam F, angiolam F], the concentration for half-maximal inhibition (IC50) in “Cytotoxicity in L6 cells” (rat) came to 49.9 ± 21.6 µM; in series [2] (setting [6]), 1.3 ± 0.6 µM; in series [3] it was 24.4 ± 5 µM; in series [1] (setting [7]) it was 25 ± 1.4 µM; in series [4] it was 17.6 ± 2.1 µM. Besides, the “P. falciparum SI (selectivity index)” value in series [2] is reported as 37; in series [2] (listed as Angiolam F (5)), 37.4. Moreover, the “T. cruzi SI (selectivity index)” value is listed as no more than 2.1 in series [3] and 2.1 in series [3] (listed as Angiolam F (5)). For the same molecule, the “T. b. rhodesiense SI (selectivity index)” value in series [1] came to 2.0. The “L. donovani SI (selectivity index)” value in series [4] is 2.83.
For the molecule `C=C/C=C(\C)C(=O)CC[C@@H](C)/C=C/[C@@H]1CC[C@@H](C)C(=O)CC(=O)N[C@@H](C)CCC(=O)[C@@H](C)[C@H](O)[C@@H](C)/C=C(\C)C(=O)O1` [Angiolam B, angiolam B], the concentration for half-maximal inhibition (IC50) in the series “Cytotoxicity in L6 cells” (rat) amounted to 27.8 ± 2 µM; in series [2] (setting [6]) it was 0.3 ± 0.1 µM; in series [3] it was 30.4 ± 10 µM; in series [1] (setting [7]), 6.3 ± 1 µM; in series [4] it was 6.6 ± 1.9 µM. The entries for the “P. falciparum SI (selectivity index)” value in series [2] and in series [2] (listed as Angiolam B (2)) were no less than 30 and 91.6, respectively. Besides, the “T. cruzi SI (selectivity index)” value in series [3] is recorded as no more than 2.1; in series [3] (listed as Angiolam B (2)), 0.9. In addition, the “T. b. rhodesiense SI (selectivity index)” value in series [1] is given as 4.4. For the same molecule, in series [4], the “L. donovani SI (selectivity index)” value is 4.22.
As to `CCCCCCCCCCCCCCCCOP(=O)([O-])OCC[N+](C)(C)C` [Miltefosine, reference compound], the 50% inhibitory concentration (IC50) in series [4] worked out at 0.53 µM.
For the molecule `C=C/C=C(\C)[C@@H](O)CC[C@@H](C)/C=C/[C@@H]1CC[C@@H](C)C(=O)CC(=O)N[C@@H](C)CCC(=O)[C@@H](C)[C@H](O)[C@@H](C)/C=C(\CC)C(=O)O1` [Angiolam D, angiolam D], the concentration for half-maximal inhibition (IC50) in “Cytotoxicity in L6 cells” (setting [5]) came to 27.8 ± 3.7 µM; in series [2] (setting [6]) it was 0.8 ± 0.6 µM; in series [3], 6.5 ± 2.2 µM; in series [1] (setting [7]), 4.7 ± 1.9 µM; in series [4], 8.2 ± 4.5 µM. Further, in series [2] (listed as Angiolam D (4)), the “P. falciparum SI (selectivity index)” value stood at 37.1. The “T. cruzi SI (selectivity index)” value in series [3] is listed as 4.3. The “T. b. rhodesiense SI (selectivity index)” value in series [1] came to 6.0. Also, the “L. donovani SI (selectivity index)” value in series [4] was 3.38.
As for `C=C/C=C(\C)[C@@H](O)CC[C@@H](C)/C=C/[C@@H]1CC[C@@H](C)C(=O)CC(=O)N[C@@H](C)CCC(=O)[C@@H](C)[C@H](O)[C@@H](C)/C=C(\C)C(=O)O1` [Angiolam A, angiolam A], the half-inhibitory concentration (IC50) is 94 ± 23.7 µM in “Cytotoxicity in L6 cells” (rat); 2.7 ± 0.5 µM in series [2] (setting [6]); 12.9 ± 5.3 µM in series [3]; 1.5 ± 0.6 µM in series [1] (setting [7]); 16.7 ± 7.3 µM in series [4]. In addition, in series [2], the “P. falciparum SI (selectivity index)” value is 34.9. In addition, the “T. cruzi SI (selectivity index)” value in series [3] turned out to be 7.3. In addition, in series [1], the “T. b. rhodesiense SI (selectivity index)” value is 63.2. Further, in series [4], the “L. donovani SI (selectivity index)” value turned out to be 5.62.
